Patent US12564547B2, “Compositions, formulations, and methods for skin treatment” (Oddity Labs, LLC, priority 2022, dated 2026)

Experiments:
Assay type in all cases: cell-based
TK.6 lymphoblasts = experiment: In vitro genotoxicity: TK.6 micronuclei assay (FIG. 5B) and SOS chromotest (FIG. 5C); conditions: TK.6 micronuclei assay without S9, 24 hr, and SOS chromotest; across a concentration range
Experimental: (§1) The safety/toxicology profiles of a compound or salt of the present disclosure was evaluated via a series of in vitro genotoxicity assays, including the SOS-chromotest to determine bacterial genotoxicity, and the TK.6 micronucleus assay to determine chromosomal damage and forward mutations. Standard reactive oxygen species (ROS) and caspase 3/7 assay were conducted to determine general cellular toxicity. Moreover, a series of sensitization tests were conducted to predict any potential skin sensitivity. These include the direct peptide reactivity assay to evaluate haptenization, the KeratinoSens reporter assay to determine any potential sensitivity via the activation of a cytoprotective pathway, and an immunological assay using human immature monocyte-derived dendritic cells to evaluate any potential immunogenicity.
TK.6 lymphoblasts are a cell line used for gene mutation analyses. TK.6 lymphoblasts are heterozygous for the thymidine kinase gene (TK) and enable the detection of forward mutations and chromosomal damage, which manifests as micronuclei. TK.6 lymphoblasts are detectable via flow cytometry. TK.6 cells were dosed with the compounds or a vehicle control (0.1% v/v DMSO) and cultured without S9 metabolic activation for 24 hr. FIG. 5A-FIG. 5E show the results of in vitro genotoxicity assay and the TK.6 micronucleus assay. FIG. 5A are example plots of TK.6 cells treated with compound V-1. Methyl methanesulfonate, a genotoxic, alkylating agent was used as a positive control for micronuclei detection. […] The SOS chromotest is a bacteria-based test for genotoxicity. […] Cells were treated with either the compounds or vehicle control containing correspondingly % v/v-matched amounts of DMSO. High represents 10 µg/mL while low represents 1 μg/mL. Tested compounds elicited no or minor caspase 3/7 activation at low and high concentrations. In FIG. 5A-FIG. 5E, data represents mean±s.d. and representative of at least 2 experimental replicates.

human dermal fibroblasts = experiment: Human dermal fibroblast cells (hDFC) proliferation, cell viability assay (CellTiter-Glo, manual cell counting); conditions: hDFCs proliferation; control is DMSO
Nrf2-ARE pathway = experiment: KeratinoSens Nrf2-ARE reporter assay (ARE-luciferase activity); conditions: across a concentration range
Experimental: as §1
The Nrf2-ARE pathway is a master regulator of cytoprotective responses to oxidative stress, and is an early indicator of skin sensitization. Nrf2 (nuclear factor erythroid 2-related factor) is a transcription factor that binds to antioxidant responsive elements (ARE). By fusing ARE to the light-producing luciferase gene, a KeratinoSens Nrf2-ARE reporter assay was constructed whereby luciferase signal is directly correlated to Nrf2-ARE pathway activation. […] FIG. 6B describes an in vitro dendritic cell sensitization test. Dendritic cell activation is widely-associated with downstream immunogenicity. CD14+ cells from human donor peripheral mononuclear cells were harvested and differentiated them into immature monocyte-derived DCs using granulocyte-macrophage colony-stimulating factor (GM-CSF) and interleukin-4 (IL-4), then treated with the lead compounds. Killed E. Coli and TNF-α were used as positive controls. FIG. 6C-FIG. 6E are example plots showing change in HLA-DR expression. Expression of CD80 (FIG. 6C), PDL-1 (FIG. 6D), and CD141 (FIG. 6E) as quantified via mean fluorescence intensity (MFI) following dosing with example compounds. […] In FIG. 6A-FIG. 6E, data represents mean±s.d. and representative of at least 2 experimental replicates.

| Molecule | genotoxic transformation potential (TK.6 lymphoblasts) | Activity (Percent Increase Proliferation of hFDPCs (%)) (human dermal fibroblasts) | skin sensitizing potential (Nrf2-ARE pathway activation) (Nrf2-ARE pathway) |
| --- | --- | --- | --- |
| COc1ccc(NC(=O)C(=O)NCCCn2ccnc2)cc1 [III-1, N-(3-imidazol-1-ylpropyl)-N′-(4-methoxyphenyl)oxamide] | mild genotoxicity at higher concentrations | D (increased proliferation of hFDPCs equals to or larger than 8%) | did not exhibit apparent Nrf2-ARE pathway activation |
| CCOCCCn1c(=O)[nH]c2ccccc2c1=O [V-1, 3-(3-ethoxypropyl)-1H-quinazoline-2,4-dione] | did not exhibit any genotoxic transformation potential | C (increased proliferation of hFDPCs equals to or larger than 4% and less than 8%) | did not exhibit apparent Nrf2-ARE pathway activation |
| COc1ccc(CCCc2nc3ccccc3[nH]2)cc1 [VII-34, 2-[3-(4-methoxyphenyl)propyl]-1H-benzimidazole] |  | D (increased proliferation of hFDPCs equals to or larger than 8%) | did not exhibit apparent Nrf2-ARE pathway activation |
| CCCCC(=O)NCCc1ccc(OC)cc1 [II-1, N-[2-(4-methoxyphenyl)ethyl]pentanamide] | mild genotoxicity at higher concentrations | C (increased proliferation of hFDPCs equals to or larger than 4% and less than 8%) | did not exhibit apparent Nrf2-ARE pathway activation |
| Cn1c(SCC(=O)N2CCCCCC2)nnc1-c1ccccc1 [I-1, 1-(azepan-1-yl)-2-[(4-methyl-5-phenyl-1,2,4-triazol-3-yl)sulfanyl]ethanone] | mild genotoxicity at higher concentrations | C (increased proliferation of hFDPCs equals to or larger than 4% and less than 8%) | did not exhibit apparent Nrf2-ARE pathway activation |
| Cc1[nH]c2ccc(C(=O)NCC3CCCO3)cc2c1C (centres unmarked) [IV-1, 2,3-dimethyl-N-(oxolan-2-ylmethyl)-1H-indole-5-carboxamide] | mild genotoxicity at higher concentrations | C (increased proliferation of hFDPCs equals to or larger than 4% and less than 8%) | exhibited sensitizing potential |
| CN(C)C(=O)COC(=O)c1ccc2[nH]c3c(c2c1)CCCC3 [IV-2, [2-(dimethylamino)-2-oxoethyl] 6,7,8,9-tetrahydro-5H-carbazole-3-carboxylate] | mild genotoxicity at higher concentrations | B (increased proliferation of hFDPCs equals to or larger than 1% and less than 4%) | did not exhibit apparent Nrf2-ARE pathway activation |
| O=C(CSc1nnc(SCC(=O)N2CCCC2)s1)N1CCCC1 [VII-35, 2-[[5-(2-oxo-2-pyrrolidin-1-ylethyl)sulfanyl-1,3,4-thiadiazol-2-yl]sulfanyl]-1-pyrrolidin-1-ylethanone] |  | C (increased proliferation of hFDPCs equals to or larger than 4% and less than 8%) |  |
| CC1=C(/C=C/C(C)=C/C=C/C(C)=C/CO)C(C)(C)CCC1 [Retinol, reference compound] |  | B (increased proliferation of hFDPCs equals to or larger than 1% and less than 4%) |  |
| Cn1nnnc1SCC(=O)N1CCCCC1 [VII-37, 2-(1-methyltetrazol-5-yl)sulfanyl-1-piperidin-1-ylethanone] |  | C (increased proliferation of hFDPCs equals to or larger than 4% and less than 8%) |  |
| CC(NC(=O)COc1ccc(CN(C)S(C)(=O)=O)cc1)c1ccccc1 (centres unmarked) [VII-26, 2-[4-[[methyl(methylsulfonyl)amino]methyl]phenoxy]-N-(1-phenylethyl)acetamide] |  | D (increased proliferation of hFDPCs equals to or larger than 8%) |  |
| Nn1c(SCC(=O)N2CCCCC2)nnc1-c1ccccc1 [I-2, 2-[(4-amino-5-phenyl-1,2,4-triazol-3-yl)sulfanyl]-1-piperidin-1-ylethanone] |  | B (increased proliferation of hFDPCs equals to or larger than 1% and less than 4%) |  |
| COC(=O)Cn1c(=O)[nH]c2ccccc2c1=O [V-4, methyl 2-(2,4-dioxo-1H-quinazolin-3-yl)acetate] |  | A (increased proliferation of hFDPCs of less than 1%) |  |
| oxetan-3-amine [VII-13] |  | D (increased proliferation of hFDPCs equals to or larger than 8%) |  |
| CC(=O)OC(Cn1ccnc1)c1ccccc1 (centres unmarked) [VII-28, (2-imidazol-1-yl-1-phenylethyl) acetate] |  | A (increased proliferation of hFDPCs of less than 1%) |  |
| Cc1ccsc1C(=O)NC(C)C [VI-2, 3-methyl-N-propan-2-ylthiophene-2-carboxamide] |  | B (increased proliferation of hFDPCs equals to or larger than 1% and less than 4%) |  |
| NC(=O)C1CCCc2ccccc2N1 (centres unmarked) [VII-18, 2,3,4,5-tetrahydro-1H-1-benzazepine-2-carboxamide] |  | D (increased proliferation of hFDPCs equals to or larger than 8%) |  |
| CNC(=O)C(CC(C)C)NC(=O)c1sccc1OC (centres unmarked) [VI-3, 3-methoxy-N-[4-methyl-1-(methylamino)-1-oxopentan-2-yl]thiophene-2-carboxamide] |  | D (increased proliferation of hFDPCs equals to or larger than 8%) |  |
| CC1CNCCN1 (centres unmarked) [VII-8, 2-methylpiperazine] |  | D (increased proliferation of hFDPCs equals to or larger than 8%) |  |
| Cc1c(Br)c([N+](=O)[O-])nn1CC(=O)N1CCCCCC1 [VII-12, 1-(azepan-1-yl)-2-(4-bromo-5-methyl-3-nitropyrazol-1-yl)ethanone] |  | C (increased proliferation of hFDPCs equals to or larger than 4% and less than 8%) |  |
| NC12CN3CN(CN(C3)C1)C2 [VII-4, 1,3,5-triazatricyclo[3.3.1.13,7]decan-7-amine] |  | D (increased proliferation of hFDPCs equals to or larger than 8%) |  |
| O=C(CSc1nnnn1-c1ccc(O)cc1)N1CCCCC1 [VII-36, 2-[1-(4-hydroxyphenyl)tetrazol-5-yl]sulfanyl-1-piperidin-1-ylethanone] |  | D (increased proliferation of hFDPCs equals to or larger than 8%) |  |
| Nn1c(SCC(=O)N2CCCC2)nnc1C1CCCCC1 [I-4, 2-[(4-amino-5-cyclohexyl-1,2,4-triazol-3-yl)sulfanyl]-1-pyrrolidin-1-ylethanone] |  | C (increased proliferation of hFDPCs equals to or larger than 4% and less than 8%) |  |
| CN(C)CN(C)C [VII-11, N,N,N′,N′-tetramethylmethanediamine] |  | D (increased proliferation of hFDPCs equals to or larger than 8%) |  |
| CC(C)CC(=O)NC(C)c1ccccc1 (centres unmarked) [II-5, 3-methyl-N-(1-phenylethyl)butanamide] |  | D (increased proliferation of hFDPCs equals to or larger than 8%) |  |
| CCCC(=O)NCc1ccc(OC)cc1 [II-2, N-[(4-methoxyphenyl)methyl]butanamide] |  | B (increased proliferation of hFDPCs equals to or larger than 1% and less than 4%) |  |
| COc1ccc(CNC(=O)C(=O)NCCCn2ccnc2)cc1 [III-2, N-(3-imidazol-1-ylpropyl)-N′-[(4-methoxyphenyl)methyl]oxamide] |  | D (increased proliferation of hFDPCs equals to or larger than 8%) |  |
| COc1ccc(CN2CCN(C(=O)CCn3ccnc3)CC2=O)cc1 [VII-32, 4-(3-imidazol-1-ylpropanoyl)-1-[(4-methoxyphenyl)methyl]piperazin-2-one] |  | A (increased proliferation of hFDPCs of less than 1%) |  |
